System: apomorphine-induced dopaminergic neurotransmission
Test: BOLD fMRI of neuronal/glial activity in conscious rats pre-treated with an antipsychotic and challenged with apomorphine
Format: in vivo, rat
Settings: for neuronal/glial activity in the anterior thalamic nuclei / neuronal/glial activity in the pituitary gland: antipsychotic pre-treatment i.p. (chlorpromazine, clozapine, olanzapine 5 mg/kg; haloperidol 1 mg/kg)
Text: To image the brain activity of live rats (Charles River Laboratories, Wilmington, Mass.), the rats were anesthetized with 2-3% isoflurane (Abbott Laboratories, North Chicago, Ill.). Nine (9) rats were used for each experimental condition. A topical anesthetic of 10% lidocaine gel was applied to the skin and soft tissue around the ear canals and over the bridge of the nose. A plastic semi-circular headpiece with blunted ear supports that fit into the ear canals was positioned over the ears. The head was placed into a cylindrical head holder with the rat's canines secured over a bite bar and ears positioned inside the head holder with adjustable screws fitted into lateral sleeves. An adjustable, receive-only surface coil built into the head holder was pressed firmly on the head and locked into place. The body of the rat was placed into a body restrainer. The body restrainer “floats” down the center of the chassis connecting at the front and rear end-plates and buffered by rubber gaskets. The head piece locks into a mounting post on the front of the chassis. This design isolates all of the body movements from the head restrainer and minimizes motion artifact. Once the rat was positioned in the body holder, a transmit-only volume coil was slid over the head restrainer and locked into position.
When the rats were fully conscious, the restraining unit was placed into a black opaque tube mock scanner with a tape-recording of an MRI pulse sequence. This acclimation protocol lasted for 60 minutes in order to simulate the bore of the magnet and the imaging protocol. This procedure was repeated every other day for four days.
Experiments were conducted in a Bruker Biospec 4.7-T/40-cm horizontal magnet (Oxford Instrument, Oxford, U.K.) equipped with a Biospec Bruker console (Bruker, Billerica, Mass., U.S.A.) and a 20 G/cm magnetic field gradient insert (internal diameter=12 cm) capable of a 120 μs rise time (Bruker). Radiofrequency (RF) signals were sent and received with the dual coil electronics built into the animal restrainer (Ludwig et al., 2004, J. Neurosci. Methods 132(2):125-35). The volume coil for transmitting RF signal features an 8-element microstrip line configuration in conjunction with an outer copper shield. The arch-shaped geometry of the receiving surface coil provides excellent coverage and high signal-to-noise. To prevent mutual coil interference, the volume and surface coils were actively tuned and detuned.
Functional images were acquired using a multi-slice fast spin echo sequence. A single data acquisition included twelve (12), 1.2 mm slices collected in 6 seconds (field of view (FOV) 3.0 cm; data matrix 64×64; repetition time (TR) 1.43 sec, effective echo time (Eff TE) 53.3 msec, echo time (TE) 7 msec; rapid acquisition with relaxation enhancement (RARE) factor 16, number of excitations (NEX) 1). This sequence was repeated 100 times in a 10 minute imaging session, consisting of 5 minutes of baseline data followed by 5 minutes of stimulation data. At the beginning of each imaging session, a high resolution anatomical data set was collected using a RARE pulse sequence (12 slice; 1.2 mm; FOV 3.0 cm; 256×256; TR 2.1 sec; TE 12.4 msec; NEX 6; 7 minute acquisition time).
For each subject, rigid body motion in x-, y- and z-direction was computed with Stimulate software (Strupp, 1996, NeuroImage 3:S607) using center of intensity method. […] A conservative criteria of 120 μm standard deviation of motion in any direction was set as acceptance criteria.

[1] = then apomorphine 20 μg/10 μl ICV, BOLD fMRI, conscious rat
[2] = pre-treatment 5 mg/kg i.p., then apomorphine 20 μg/10 μl ICV, BOLD fMRI, conscious rat
[3] = apomorphine 20 μg/10 μl ICV, BOLD fMRI, conscious rat

Structure (SMILES) | neuronal/glial activity in the dorsal striatum (antipsychotic pre-treatment i.p. (chlorpromazine, clozapine, olanzapine 5 mg/kg), then apomorphine 20 μg/10 μl ICV, BOLD fMRI, conscious rat) | neuronal/glial activity in the anterior thalamic nuclei [1] | neuronal/glial activity in the pituitary gland [1] | neuronal/glial activity in the CA1 region of the hippocampus [2] | neuronal/glial activity in the CA3 region of the hippocampus [2] | neuronal/glial activity in the dentate gyms region of the hippocampus [2] | neuronal/glial activity in the subiculum region of the hippocampus [2] | neuronal/glial activity throughout the hippocampus [2] | activation of the anterior thalamic nuclei by apomorphine [3] | activation of the dorsal striatum by apomorphine [3] | activation of the pituitary gland by apomorphine [3] | activation of the mesocorticolimbic dopamine system (reward pathway) by apomorphine (apomorphine alone, 20 μg/10 μl ICV, BOLD fMRI, conscious rat) | change in BOLD signal intensity in the pituitary gland (time course following ICV administration of apomorphine (FIG. 3A)) | change in BOLD signal intensity in the anterior thalamic nuclei (time course following ICV administration of apomorphine (FIG. 3B)) | change in BOLD signal intensity in the dorsal striatum (time course following ICV administration of apomorphine (FIG. 3C))
CN(C)CCCN1c2ccccc2Sc2ccc(Cl)cc21 [chlorpromazine] | reduced | pronounced reduction | pronounced reduction | significant reduction in neuronal/glial activity | significant reduction in neuronal/glial activity | significant reduction in neuronal/glial activity | significant reduction in neuronal/glial activity | selective reduction in activity |  |  |  |  |  |  | 
O=C(CCCN1CCC(O)(c2ccc(Cl)cc2)CC1)c1ccc(F)cc1 [haloperidol] |  | reducing apomorphine-induced neuronal/glial activity | reducing apomorphine-induced neuronal/glial activity |  |  |  |  |  |  |  |  |  |  |  | 
CN1CCc2cccc3c2[C@H]1Cc1ccc(O)c(O)c1-3 [apomorphine] |  |  |  |  |  |  |  |  | activated | activated | activated | activated | increased | increased | increased
